{"source": "patent US20200222377A1", "about": "“Methods Of Enhancing And/Or Stabilizing Cardiac Function In Patients With Fabry Disease” (Amicus Therapeutics, Inc., priority 2017, published 2020)", "key": {"[1]": {"test_system": "ERT-naïve Fabry patients", "test": "Phase 3 study of migalastat therapy in ERT-naïve Fabry patients: MWFS by echocardiography", "type": "in vivo, human", "conditions": "for Change from baseline in MWFS, mean / Mean change from baseline in MWFS: amenable mutations", "protocol": "This example describes a Phase 3 study of migalastat therapy in ERT-naïve Fabry patients. Patient Enrollment. […] Study Design. […] Echocardiography. LVMi, left posterior wall thickness, diastolic, interventricular septum thickness, diastolic and other parameters were assessed through blinded, centralized evaluation. Baseline MWFS. At baseline, impaired MWFS (<15% for females and <14% for males) was reported in 9 patients."}, "[2]": {"test_system": "ERT-experienced Fabry patients", "test": "Phase 3 study of migalastat therapy in ERT-experienced Fabry patients: MWFS by echocardiography", "type": "in vivo, human", "protocol": "This example describes a Phase 3 study of migalastat therapy in ERT-experienced Fabry patients.\nStudy Design. Following eligibility-baseline assessments, 57 patients were randomized to 18 months of migalastat therapy or ERT, followed by followed by 12 months of migalastat therapy. The migalastat dosing regimen was 150 mg of migalastat hydrochloride every other day.\nBaseline MWFS. At baseline, impaired MWFS (<15% for females and <14% for males) was reported in 19 (14 migalastat, 5 ERT) patients."}, "[3]": {"test_system": "ERT-naïve Fabry patients", "conditions": "human, in vivo", "quoted_text": "(§1) Study Design. Following eligibility-baseline assessments (2 months), patients were randomized to Stage 1—6 months of double-blind administration of 150 mg migalastat hydrochloride or placebo every other day. All patients completing Stage 1 were eligible to receive open-label migalastat in Stage 2 (months 6-12) and for an additional year (months 13-24) thereafter. The primary objective was to compare the effect of migalastat to placebo on kidney GL-3 as assessed by histological scoring of the number of inclusions in interstitial capillaries after 6 months of treatment. The secondary objectives of Stage 1 were to compare the effect of migalastat to placebo on urine GL-3 levels, on renal function, 24-hours urinary protein, and on safety and tolerability. The tertiary objectives were cardiac function, patient-reported outcomes, exploratory kidney analyses, and white blood cell α-Gal A activity. Study completers were eligible to enroll in the open-label extension study for up to 5 years.\n(§2) Safety Analysis and Adverse Events. Randomized patients receiving ≥1 dose were included in the safety analysis, which comprised vital signs, physical exams, electrocardiograms, clinical labs, and adverse events."}, "[4]": {"target": "T1, wild-type α-Gal A and specific mutant forms of α-Gal A (Homo sapiens, UniProt P06280)", "T1 sequence (P06280 32-429)": "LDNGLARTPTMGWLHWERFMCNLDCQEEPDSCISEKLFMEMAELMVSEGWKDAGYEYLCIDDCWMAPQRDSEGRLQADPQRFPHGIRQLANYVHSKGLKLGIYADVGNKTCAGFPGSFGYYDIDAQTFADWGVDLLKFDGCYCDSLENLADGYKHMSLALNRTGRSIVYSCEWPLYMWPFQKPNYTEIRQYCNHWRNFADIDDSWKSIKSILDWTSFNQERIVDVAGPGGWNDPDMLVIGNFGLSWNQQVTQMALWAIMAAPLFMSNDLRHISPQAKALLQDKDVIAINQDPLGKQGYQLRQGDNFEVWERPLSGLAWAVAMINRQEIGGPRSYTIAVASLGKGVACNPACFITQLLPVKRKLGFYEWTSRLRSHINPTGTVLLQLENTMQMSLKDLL", "conditions": "selective and reversible binding; cited from earlier work"}, "[5]": {"test_system": "ERT-naïve Fabry patients", "test": "Phase 3 study in ERT-naïve Fabry patients: safety analysis and adverse events", "quoted_text": "as §1, §2"}, "[6]": {"conditions": "patients with LVH at baseline, Month 48"}, "[7]": {"conditions": "open-label-extension (months 12-24), 6/57 patients"}}, "data": [{"smiles": "OC[C@H]1NC[C@H](O)[C@@H](O)[C@H]1O", "note": "[migalastat, (2R,3S,4R,5S)-2-(hydroxymethyl) piperdine-3,4,5-triol]", "values": [{"measurement": "Effect on MWFS (in words)", "setting": "[1]; ERT-naïve patients with impaired MWFS at baseline", "result": "increased MWFS"}, {"measurement": "Change from baseline in MWFS, mean", "setting": "[1]; patients with LVH at baseline, LOCF, over 48 months", "result": 1.0, "unit": "%"}, {"measurement": "Change from baseline in MWFS, mean", "setting": "[1]; patients with LVH at baseline, Month 12", "result": 0.2, "unit": "%"}, {"measurement": "Change from baseline in MWFS, mean", "setting": "[1]; patients with LVH at baseline, Month 24", "result": 0.9, "unit": "%"}, {"measurement": "Change from baseline in MWFS, mean", "setting": "[1]; patients with LVH at baseline, Month 36", "result": 0.7, "unit": "%"}, {"measurement": "Change from baseline in MWFS, mean", "setting": "[1]; [6]", "result": 0.6, "unit": "%"}, {"measurement": "Normalization of MWFS, patients n/N (%)", "setting": "[1]; [6]", "result": 0}, {"measurement": "Mean change from baseline in MWFS", "setting": "[1]; patients with impaired MWFS at baseline, LOCF, over 48 months", "result": 1.9, "unit": "%"}, {"measurement": "Mean change from baseline in MWFS", "setting": "[1]; patients with impaired MWFS at baseline, LOCF, over 48 months, listed as Migalastat", "result": 1.9, "unit": "%"}, {"measurement": "Mean change from baseline in MWFS", "setting": "[1]; patients with impaired MWFS at baseline, Month 12, 150 mg migalastat HCl QOD", "result": 0.1, "unit": "%"}, {"measurement": "Mean change from baseline in MWFS", "setting": "[1]; patients with impaired MWFS at baseline, Month 24", "result": 1.4, "unit": "%"}, {"measurement": "Mean change from baseline in MWFS", "setting": "[1]; patients with impaired MWFS at baseline, Month 36", "result": 1.4, "unit": "%"}, {"measurement": "Mean change from baseline in MWFS", "setting": "[1]; patients with impaired MWFS at baseline, Month 48", "result": 2.4, "unit": "%"}, {"measurement": "Normalization of MWFS, patients n/N (%)", "setting": "[1]; patients with impaired MWFS at baseline, Month 12", "result": 0}, {"measurement": "Effect on MWFS (in words)", "setting": "[2]; ERT-experienced patients with impaired MWFS at baseline", "result": "stabilized MWFS"}, {"measurement": "Mean change from baseline in MWFS", "setting": "[2]; patients with impaired MWFS at baseline, LOCF, over 30 months of migalastat therapy, n=14", "result": "−0.2", "unit": "%"}, {"measurement": "Deaths", "setting": "[3]", "result": "No deaths were reported"}, {"measurement": "Binding to the active site of α-Gal A (in words)", "setting": "[4]", "result": "high affinity"}, {"measurement": "Patients who experienced serious adverse events", "setting": "[5]; Stage 1, migalastat group", "result": 2, "unit": "patients"}, {"measurement": "Patients who experienced serious adverse events", "setting": "[5]; Stage 2", "result": 5, "unit": "patients"}, {"measurement": "Adverse event frequency: procedural pain (related to kidney biopsies)", "setting": "[5]; Stage 2 (months 6-12, open-label), 7/63 patients", "result": 11, "unit": "%"}, {"measurement": "Adverse event frequency: headache", "setting": "[5]; Stage 2 (months 6-12, open-label), 9/63 patients", "result": 14, "unit": "%"}, {"measurement": "Progression to end-stage renal disease, cardiac death, stroke", "setting": "[5]; as defined in Banikazemi et al.", "result": "no progression to end-stage renal disease, no cardiac death and no stroke"}, {"measurement": "Patients who discontinued migalastat due to serious adverse events", "setting": "[5]; both deemed unrelated to migalastat", "result": "Two"}, {"measurement": "Serious adverse events assessed as possibly related to migalastat by the investigator", "setting": "[5]; fatigue and paresthesia, same patient, months 12-24, resolved", "result": "Two"}, {"measurement": "Adverse events leading to migalastat discontinuation", "setting": "[5]; human, in vivo", "result": "No adverse events led to migalastat discontinuation"}, {"measurement": "Severity of most adverse events", "setting": "[5]; human, in vivo", "result": "mild or moderate in severity"}, {"measurement": "Vital sign, physical findings, laboratory and ECG parameters", "setting": "[5]; human, in vivo", "result": "did not reveal any clinically relevant effect"}, {"measurement": "Transient ischemic attack", "setting": "[5]; judged unrelated to migalastat", "result": "single case"}, {"measurement": "Patients who experienced serious adverse events", "setting": "[5]; open-label-extension", "result": 11, "unit": "patients"}, {"measurement": "Adverse event frequency: bronchitis", "setting": "[5]; [7]", "result": 11, "unit": "%"}, {"measurement": "Adverse event frequency: headache", "setting": "[5]; [7]", "result": 11, "unit": "%"}, {"measurement": "Adverse event frequency: proteinuria (treatment-emergent)", "setting": "[5]; open-label-extension (months 12-24), 9/57 patients", "result": 16, "unit": "%"}, {"measurement": "Patients in whom 24-hour urine protein remained stable during migalastat treatment", "setting": "[5]; patients with baseline proteinuria <300 mg/24-h", "result": "23/28"}]}]}
